# Test results taken from the SangsterLogP compilation.
# Assay: not given
# Details: not given
row,logP,Structure (SMILES)
1,0.3,N#Cc1ccc(-c2ccccn2)[nH]c1=O
2,0.02,N#Cc1ccc(-c2ccncc2)[nH]c1=O
3,0.65,CCOC(=O)c1cc(C#N)c(=O)[nH]c1C
4,-0.13,Cc1ccc(C#N)c(=O)[nH]1
5,0.05,N#Cc1ccc(-c2cccnc2)[nH]c1=O
6,0.15,Cc1[nH]c(=O)c(C#N)cc1C(=O)O

# More lines, now with the values behind:
row,Structure (SMILES),logP
1,COC(=O)c1cc(C(C)=O)c(C)[nH]c1=O,-0.09
2,Cc1[nH]c(=O)c(C#N)cc1C(=O)OCC(C)C,1.78
3,CC(=O)c1cc(C(=O)O)c(=O)[nH]c1C,-0.04

# Assay: method code SF, from DOI: 10.1016/j.ejps.2005.05.001, PMID: 15955679
# Details: not given
row,logP,Structure (SMILES)
1,1.76,O=c1[nH]c2c(cc1S(=O)(=O)c1ccccc1)CCCC2
2,2.1,O=C(c1ccccc1)c1cc2c([nH]c1=O)CCCC2
3,1.74,CC(=O)c1ccc(-c2ccccc2)[nH]c1=O

# Same assay, conditions: pH 7.4
row,logD,Structure (SMILES)
1,-0.3,CC(=O)c1ccc(=O)[nH]c1C
